The source of these data is patent publication US20220257793A1, “COMPOSITIONS AND USE OF ENGINEERED MYOGENIC CELLS” (Institute of Zoology, Chinese Academy of Sciences, priority 2019, published 2022).

In one test the test system is HSKM progenitors. The test can be described thus: Cell counts after drug treatment, HSKM. It counts as cell-based, human. The procedure:
(§1) HSKM, TS and LTS cells were seeded in gelatin-coated six-well plates at a density of 4×10^4 cells/well and maintained with culture medium. One day after seeding, culture medium was replaced with culture medium containing either paraquat (Sigma-Aldrich; 2 μM), hydrogen peroxide (ICM Pharma; 100 μM), DTT (Thermo Fisher; 250 μM), 2-deoxyglucose (Sigma-Aldrich; 2.5 mM), KC7F2 (Sigma-Aldrich; 10 μM) or DMSO/H2O controls. For ROS modulators, cells were allowed to grow for 72 hours post-treatment, while for 2-DG, cells were allowed to grow for eight days post-treatment.

Test [1] has as its system LTS progenitors. Briefly: Cell counts after drug treatment, LTS. It is filed as cell-based, human. As to the method: as §1
A further test concerns TS progenitors. The test can be described thus: Cell counts after drug treatment, TS. It counts as cell-based, human. The procedure: as §1
For test [2], the system named is LTS progenitors. Briefly: let-7 microRNA mimic transfection. It counts as cell-based, human. The procedure:
HSKM, TS and LTS cells were seeded in gelatin-coated six-well plates at a density of 4×10^4 cells/well and maintained with culture medium. PEI (14.5 ng/μL), mature Mirvana hsa-let-7a-5p (#4464066; Assay ID: MC10050; Thermo Fisher) and/or hsa-let-7b-5p (#4464066; Assay ID: MC11050; Thermo Fisher) mimic (0.25 μM) or Cy5-conjugated scramble RNAi control, was mixed with serum-free DMEM to a total volume of 200 μL. This mixture was transfected onto each well.

Test [3] relates to LTS progenitors. The test can be described thus: qRT-PCR after ROS-modulating drugs in LTS progenitors. It counts as cell-based, human. As to the method:
as §1, with “RNA was extracted by TRIzol (Thermo Fisher) and reverse transcribed with Superscript III (Thermo Fisher) according to manufacturer's instructions. The resulting cDNA was diluted 5× before performing qPCR with KAPA SYBR FAST on ABI Prism 7900HT (Applied Biosystems) according to manufacturers' instructions. HSKM,” for “HSKM,”
On the technique in general: Real-time PCR tracks product formation cycle by cycle.

Test [4] deals with mitochondrial ROS in HSKM, TS and LTS cells. Briefly: Flow cytometry oxidation state assay with mito-Grx1-roGFP2. It counts as cell-based, human. As to conditions: all progenitor types (HSKM, TS, LTS); H2O2 100 μM, DTT 250 μM. In general terms: In flow cytometry, cells or beads pass a laser one at a time.
Description: HSKM, TS and LTS cells were transduced with the roGFP2 retrovirus for 48 hours. Cells were allowed to expand to 15-cm tissue culture plates and then harvested for fluorescence-activated cell sorting for roGFP2+ cells using the FITC channel with a BD FACS Aria II cell sorter. HSKM, TS and LTS cells were seeded in gelatin-coated six-well plates at a density of 4×10^4 cells/well and maintained with culture medium. […] Cells were allowed to grow for 48 hours and then harvested for flow cytometry using a BD LSR Fortessa x-20 analyzer. HSKM, TS and LTS cells were used as non-fluorescent gating controls for each of their respective roGFP2+ counterparts. For each cell line, FSC, SSC, 405 nm/AmCyan and 488 nm/FITC channels were captured. FCS files were exported from FACS Diva and imported into FlowJo, where raw-value CSV files were exported. Raw values of 405 nm/488 nm ratio was calculated and then averaged for each cell line and condition.
The subject of the next test is diabetic nude mice. Briefly: Transplantation of iMusc-Insm cells into streptozotocin diabetic nude mice. It is filed as in vivo, mouse. To be noted: after streptozotocin treatment, before transplantation. As to the method: To determine whether differentiated iMusc-Insm cells were able to produce bioactive insulin and treat diabetes mellitus in vivo, 5×10^6 iMusc-Insm and iMusc-neo myoblast cells were transplanted by direct skeletal muscle injection into 6-8 week old male athymic nude mice (B6.Cg-Foxn1^nn/J; Jackson Labs) that have received daily intraperitoneal injections of 40 mg/kg streptozotocin (Tocris Bioscience), dissolved in 0.1M citrate buffer (pH 4.5), for 5 consecutive days, to model diabetes mellitus. Glycemia and insulinemia were measured in fed mice every 3-7 days, for 3 weeks after injection of the cells. Blood glucose was measured using a glucometer (Roche), while plasma insulin was measured by ELISA (Mercodia).

Turning to `O=S(=O)(NCCSSCCNS(=O)(=O)c1cc(Cl)ccc1Cl)c1cc(Cl)ccc1Cl` [KC7F2], the “progenitor proliferation (cell counts)” value in the test with HSKM progenitors was “no significant effects”; with LTS progenitors [1] it was “significantly suppressed LTS progenitor proliferation”; in the test on TS progenitors, “no significant effects”.

With hsa-let-7a-5p, the “effect on proliferation rate (cell counts)” value in the test with LTS progenitors [2] is on record as “neither let-7a, nor let-7b, nor both, had any effect”.

In the case of `OO` [H2O2, hydrogen peroxide], the “HIF1A targets and glycolysis genes mRNA” value in the test with LTS progenitors [3] was “could suppress”. The “OxPhos mRNA levels” value in the test with LTS progenitors [3] was “failed to perturb”. Moreover, the “progenitor proliferation (cell counts)” value in the test with HSKM progenitors is given as “no significant effects”; in the test with LTS progenitors [1], “significant suppression of LTS progenitor proliferation in a dose-dependent fashion”; in the test with TS progenitors, “no significant effects”. For the same molecule, the “effect on mtROS” value in test [4] is recorded as “most reliably increased mtROS”.

Consider `O=CC[C@@H](O)[C@H](O)[C@H](O)CO` [2-deoxyglucose], for which the “progenitor proliferation (cell counts)” value in the test with HSKM progenitors, in the test with LTS progenitors [1] and with TS progenitors was “mild but significant decreases” throughout.

For `O[C@H](CS)[C@H](O)CS` (racemic) [DTT, dithiothreitol], the “HIF1A targets and glycolysis genes mRNA” value in the test with LTS progenitors [3] is on record as “could suppress”. For the same molecule, in the test with LTS progenitors [3], the “OxPhos mRNA levels” value was “failed to perturb”. Further, the figures for the “progenitor proliferation (cell counts)” value with HSKM progenitors, in the test with LTS progenitors [1] and in the test on TS progenitors were “no significant effects”, “significant suppression of LTS progenitor proliferation in a dose-dependent fashion” and “no significant effects”, respectively. For the same molecule, the “effect on mtROS” value in test [4] is recorded as “most reliably reduced mtROS”.

In the test on diabetic nude mice, `CN(N=O)C(=O)N[C@H]1C(O)O[C@H](CO)[C@@H](O)[C@@H]1O` (mixture of isomers) [streptozotocin] had a fed glucose levels of about 346 mg/dL and a fed insulin levels of about 63 μIU/ml.

Take hsa-let-7b-5p: the “effect on proliferation rate (cell counts)” value with LTS progenitors [2] is listed as “neither let-7a, nor let-7b, nor both, had any effect”.
